The source of these data is patent publication US11859209B2, “Method for inducing osteogenic differentiation” (KYOTO UNIVERSITY, priority 2017, dated 2024).

Data set [1] concerns iPS cells. Nature of the data set: Amount of calcium salt deposition (OCPC), one-procedure osteogenic differentiation method. Format: cell-based, human. The protocol: On-feeder iPS cells were cultured under feeder-free conditions on Matrigel coating in mTeSR (product name, Stemcell Technologies) for three days (D-3 to D0). The cells were seeded on gelatin coating and cultured in a mixed culture medium of osteogenic induction medium (OI medium) and mTeSR (mixing ratio=4:1) supplemented with a ROCK inhibitor (ROCKi) and retinoic acid (RA) for the first two days (D0 to D2). The cells were then cultured in osteogenic induction medium supplemented with retinoic acid (RA) until D10. As a control, cells were cultured in the same culture medium without retinoic acid.
iPS cells were cultured under feeder-free conditions on laminin coating in StemFit AK03N (product name, Ajinomoto Healthy Supply), and then cultured in a mixed culture medium of osteogenic induction medium (OI medium) and mTeSR (mixing ratio=4:1) supplemented with a ROCK inhibitor (ROCKi) and retinoic acid (RA) for the first two days (D0 to D2). The cells were then cultured in osteogenic induction medium supplemented with retinoic acid (RA) until D10. As a control, cells were cultured in the same culture medium without retinoic acid.
(§1) For the evaluation of calcified nodule-forming capacity, the cultured cells were fixed in ethyl alcohol, reacted with alizarin red staining solution for 10 minutes and washed. The positive nodules were evaluated qualitatively. Calcium salt deposition was determined quantitatively by measuring the intensity of color produced by o-cresolphthalein complexon (OCPC) solution.
Next, induction of osteogenic differentiation via BMP and WNT was investigated using inhibitors against them. Cells were cultured in culture medium supplemented with a BMP inhibitor (LDN) or a WNT inhibitor (IWR1) for 10 days, and the amount of calcium salt deposition was determined. […] The results confirmed that both of BMP and WNT signals are implicated in the induction of osteogenic differentiation by retinoic acid.
Cells were cultured in culture medium supplemented with BMS 493, which is an antagonist against all the retinoic acid receptors (pan-RAR antagonist) for 10 days, and the amount of calcium salt deposition was determined.
Next, the effects of siRNAs on each RAR were analyzed. […] However, addition of siRNAs against RARα (α#1 and α#2) and siRNAs against RARβ (β#1 and β#2) reduced the bone-forming capacity. […] In the figure, CTL indicates cell culture supplemented with a control siRNA, and (−) indicates cell culture with no siRNA.
Cells were subjected to the one-procedure osteogenic differentiation method in osteogenic induction medium supplemented with a retinoic acid receptor (RAR) agonist instead of retinoic acid (RA). The amount of calcium salt deposition was determined on day 10. As with addition of retinoic acid, the amount of calcium salt deposition was increased by the addition of the RARα agonists Am 580 (200 nM) and Am 80 (1 μM), or the RARβ agonists CD2314 (3 μM) and AC 55649 (3 μM).

The test system of data set [2] is bone defects of 4 mm in diameter created in the cranium of NOD-SCID mice. Nature of the data set: Transplantation of day 7 induced cells into cranial bone defects, micro-CT and histology after six weeks. Particulars: transplanted cells cultured in osteogenic induction medium supplemented with retinoic acid, FIG. 8B.
Data set [3] deals with iPS cells derived from osteogenesis imperfecta patients having abnormalities of the COL1A1 gene. Nature of the data set: Alizarin red staining of cells induced from OI patient-derived iPS cells. Format: cell-based, human. The settings on record: 100 nM added from day 2, assessed on day 10; FIG. 19. How it is done: as §1
(§2) iPS cells (OI#1-1 and OI#2-1) were established from two OI patients (OI#1 and OI#2) having an abnormal COL1A1 gene. The respective mutations in the COL1A1 gene in the iPS cells were restored by genome editing technology to generate rescued iPS cells (resOI#1-1 and resOI#2-1). These iPS cells and standard iPS cells (WT1, 414C2; WT2, 409B2) were subjected to induction of osteogenic differentiation by the one-procedure osteogenic differentiation method. On day 10 of induction, the cells were compared in terms of the capacity of calcified nodule formation, the amount of calcium salt deposition, the expression of an ER stress-related gene, and the capacity of type I collagen secretion.
(§3) Accordingly, the inventors investigated whether the one-procedure osteogenic differentiation method can recapitulate the effects of an mTOR inhibitor. Rapamycin (10 nM) or everolimus (100 nM) was added to the culture medium from day 2 of the induction, and differentiation capacity was assessed on day 10.

For data set [4] the test system is unchanged. The experiment in a line: Calcium salt deposition of cells induced from OI patient-derived iPS cells. The settings on record: 100 nM added from day 2, assessed on day 10; FIG. 20. In kind it is cell-based, human. The protocol:
as §1, §2, §3

Data set [5] has the same test system. Nature of the data set: Type I collagen secretion by immunostaining with anti-type I collagen antibody, OI patient-derived iPS cells. In kind it is cell-based, human. Particulars: 100 nM added from day 2, assessed on day 10; FIG. 22.
Source text: as §2, §3

Data set [6] has the same test system. Nature of the data set: Expression of ER stress-related gene BiP in cells induced from OI patient-derived iPS cells. Format: cell-based, human. The settings on record: 100 nM added from day 2, assessed on day 10; FIG. 21.
Source text: as §2, §3

The mark [7] stands for this setting: day 10, agonist instead of retinoic acid, 3 μM, FIG. 14.
The mark [8] stands for this setting: day 10, agonist instead of retinoic acid, 1 μM, FIG. 14.

Take `CC1(C)CCC(C)(C)c2cc(C(=O)Nc3ccc(C(=O)O)cc3)ccc21` [Am 580]: the “amount of calcium salt deposition” value in data set [1] (day 10, agonist instead of retinoic acid, 200 nM, FIG. 14) is given as “increased”.
For `CC1(C)CCC(C)(C)c2cc(Cn3cccn3)c(/C=C/c3ccc(C(=O)O)cc3)cc21` [R667], the “amount of calcium salt deposition” value in data set [1] (day 10, agonist instead of retinoic acid, 100 nM, FIG. 14) is listed as “such effects were not observed”.
Consider `CC1(C)CC=C(C#Cc2ccccc2)c2cc(/C=C/c3ccc(C(=O)O)cc3)ccc21` [BMS 493], for which the “amount of calcium salt deposition” value in data set [1] (culture medium supplemented with pan-RAR antagonist for 10 days, induction by RA, FIG. 12) is on record as “The effects of RA were completely eliminated”.
As for `CC1=C(/C=C/C(C)=C/C=C/C(C)=C/C(=O)O)C(C)(C)CCC1` [retinoic acid], the tumor formation result in data set [2] is reported as “no tumor formation was observed”.
Regarding `CC1(C)CCC(C)(C)c2cc3cc(-c4cc(C(=O)O)cs4)ccc3cc21` [CD2314], the “amount of calcium salt deposition” value in data set [1] (setting [7]) is given as “increased”.
With `CCCCCCCCc1ccc(-c2ccc(C(=O)O)cc2)cc1` [AC 55649], in data set [1] (setting [7]), the “amount of calcium salt deposition” value is on record as “increased”.
For `CO[C@H]1C[C@@H]2CC[C@@H](C)[C@@](O)(O2)C(=O)C(=O)N2CCCC[C@H]2C(=O)O[C@H]([C@H](C)C[C@@H]2CC[C@@H](OCCO)[C@H](OC)C2)CC(=O)[C@H](C)/C=C(\C)[C@@H](O)[C@@H](OC)C(=O)[C@H](C)C[C@H](C)/C=C/C=C/C=C/1C` [everolimus], the “capacity of forming alizarin red-positive calcified nodules” value in data set [3] is listed as “improves”. For the same molecule, the “amount of calcium salt deposition” value in data set [4] is recorded as “improves”. Further, the “Type I collagen secretion and distribution” value in data set [5] is reported as “remarkably improved”. In data set [6], the “ER stress (expression of the ER stress-related gene BiP)” value is “suggested reduction of ER stress”.
As to `CC1(C)CCC(C)(C)c2cc(NC(=O)c3ccc(C(=O)O)cc3)ccc21` [Am 80], in data set [1] (setting [8]), the “amount of calcium salt deposition” value was “increased”.
Same read-out and setting: next, `O=C(O)c1ccc2cc(-c3ccc(O)c(C45CC6CC(CC(C6)C4)C5)c3)ccc2c1` [CD437]: “such effects were not observed”.
Turning to `O=C(Nc1cccc2cccnc12)c1ccc(N2C(=O)[C@@H]3[C@H](C2=O)[C@@H]2C=C[C@H]3C2)cc1` [IWR1], the “amount of calcium salt deposition” value in data set [1] (culture medium supplemented with BMP or WNT inhibitor for 10 days, induction by retinoic acid, FIG. 11) is “increase in calcium salt deposition by retinoic acid was inhibited”.
